Structures can show the parent of a compound that is named as a salt. Where two headings read alike, the source gives them in different places. Where a SMILES comes first, the peptide text is derived from it.

The results in this text go back to article PMC8286840, “Identifying SARS-CoV-2 antiviral compounds by screening for small molecule inhibitors of Nsp3 papain-like protease” (Biochemical Journal, 2021).

Assay [1] has as its target T1, SARS-CoV-2 PLpro (nsp3 1564–1878) (Severe acute respiratory syndrome coronavirus 2, UniProt P0DTD1). Nature of the assay: biochemical. The arrangement: FRET-quenched peptide (Pro3) cleavage by PLpro, 10 min pre-incubation, slope over 20 min, normalised to no-compound control. The following applies: read-out: % of control remaining.
For assay [2], the target named is T1, SARS-CoV-2 PLpro (nsp3 1564–1878). Nature of the assay: biochemical. Set-up: FRET-quenched peptide (Pro3) cleavage by PLpro, 10 min pre-incubation, slope over 20 min, normalised to no-compound control. The following applies: read-out: % of control remaining. This is another data set of the same source.
Experimental: The plates were organized with columns 3–22 containing the compounds; the remaining columns were used for reaction controls including substrate only and substrate with enzyme but no compound (Figure 3Aii). The PLpro enzyme was pre-incubated with the compounds for 10 min, and then the reaction was initiated by the addition of substrate. […] We incubated the inhibitors with PLpro before the enzymatic reaction so that the slow-binding inhibitors will not be missed out [21]. […] Fluorescence was read on a Spark multimode microplate reader (Tecan) with an excitation wavelength at 330 nm and emission wavelength at 420 nm. […] An amount of 5 µl of the enzyme was pre-incubated with compounds for 10 min before the addition of 15 µl substrate. Fluorescence was monitored at 2 min for 20 min with 3 min intervals giving a total of seven readings.

As to `CCc1nc2c(C)nc(C)cc2n1-c1ccc(CCNC(=O)NS(=O)(=O)c2ccc(C)cc2)cc1` [Grapiprant], the remaining activity at 1.25 µM in assay [1] (Well no.=6998, low concentration screen) was 97.1%. For the same compound, in assay [2] (Well no.=6998, high concentration screen), the remaining activity at 3.75 µM turned out to be 95.9%.
With `Cn1c(-c2ccc3c(c2)OCO3)cc(=O)c2ccccc21` [Graveoline], the remaining activity at 1.25 µM in assay [1] (Well no.=3147, low concentration screen) turned out to be 102%. Also, in assay [2] (Well no.=3147, high concentration screen), the remaining activity at 3.75 µM worked out at 104%.
As to `CC1(C)[C@@H](O)C[C@H]2[C@](C)(O)[C@@H]3CC[C@@H]4[C@@H](O)[C@@]3(C[C@@H](O)[C@@]21O)C[C@@]4(C)O` [Grayanotoxin III], the remaining activity at 1.25 µM in assay [1] is 103%. Moreover, in assay [2], the remaining activity at 3.75 µM was 104%.
With `COc1ccccc1O` [Guaiacol], the remaining activity at 1.25 µM in assay [1] (Well no.=1626, low concentration screen) was 96.8%. Besides, the remaining activity at 3.75 µM in assay [2] (Well no.=1626, high concentration screen) worked out at 98.8%.
Turning to `COc1ccccc1OCC(O)CO` (stereo not shown) [Guaifenesin], in assay [1] (Well no.=2180, low concentration screen), the remaining activity at 1.25 µM was 97.5%. In addition, in assay [2] (Well no.=2180, high concentration screen), the remaining activity at 3.75 µM was found to be 100%.
Turning to `N=C(N)N/N=C/c1c(Cl)cccc1Cl` [Guanabenz (Acetate)], the remaining activity at 1.25 µM in assay [1] (Well no.=6652, low concentration screen) amounted to 94.5%. The remaining activity at 3.75 µM in assay [2] (Well no.=6652, high concentration screen) turned out to be 100%.
As to `N=C(N)N/N=C/c1c(Cl)cccc1Cl` [Guanabenz acetate], the remaining activity at 1.25 µM in assay [1] (Well no.=604, low concentration screen) came out at 96.6%. For the same compound, the remaining activity at 3.75 µM in assay [2] (Well no.=604, high concentration screen) turned out to be 96.2%.
For the compound `N=C(N)N/N=C/c1c(Cl)cccc1Cl` [Guanabenz], the remaining activity at 1.25 µM in assay [1] (Well no.=1693, low concentration screen) worked out at 105%. Moreover, the remaining activity at 3.75 µM in assay [2] (Well no.=1693, high concentration screen) was determined as 105%.
As for `N=C(N)NC(=O)Cc1c(Cl)cccc1Cl` [Guanfacine (hydrochloride)], the remaining activity at 1.25 µM in assay [1] (Well no.=6275, low concentration screen) was determined as 101%. In addition, in assay [2] (Well no.=6275, high concentration screen), the remaining activity at 3.75 µM is 102%.
`N=C(N)NC(=O)Cc1c(Cl)cccc1Cl` [Guanfacine.HCl]: the remaining activity at 1.25 µM in assay [1] (Well no.=1894, low concentration screen) worked out at 95.7%. For the same compound, the remaining activity at 3.75 µM in assay [2] (Well no.=1894, high concentration screen) was found to be 95.2%.
On to `NC(N)=NCCSSCCN=C(N)N` [Guanidinoethyl disulfide dihydrobromide], for which, in assay [1] (Well no.=429, low concentration screen), the remaining activity at 1.25 µM was determined as 89.1%. In addition, the remaining activity at 3.75 µM in assay [2] (Well no.=429, high concentration screen) was 88.8%.
`NC(N)=N[C@@H](CC(=O)O)C(=O)O` [Guanidinosuccinic acid]: the remaining activity at 1.25 µM in assay [1] (Well no.=8176, low concentration screen) was 109%. Also, the remaining activity at 3.75 µM in assay [2] (Well no.=8176, high concentration screen) was 101%.
As for `NC(N)=Nc1ccc2[nH]c3c(c2c1)C[C@@]1(O)[C@H]2Cc4ccc(O)c5c4[C@@]1(CCN2CC1CC1)[C@H]3O5` [Guanidinyl-naltrindole di-trifluoroacetate], the remaining activity at 1.25 µM in assay [1] (Well no.=763, low concentration screen) was 96%. For the same compound, the remaining activity at 3.75 µM in assay [2] (Well no.=763, high concentration screen) is 99.9%.
As to `Nc1nc2c(ncn2[C@@H]2O[C@H](COP(=O)(O)OP(=O)(O)O)[C@@H](O)[C@H]2O)c(=O)[nH]1` [Guanosine 5'-diphosphate disodium salt], in assay [1] (Well no.=8939, low concentration screen), the remaining activity at 1.25 µM was determined as 98.9%. In addition, the remaining activity at 3.75 µM in assay [2] (Well no.=8939, high concentration screen) was found to be 96.6%.
For the compound `Nc1nc2c(ncn2[C@@H]2O[C@H](CO)[C@@H](O)[C@H]2O)c(=O)[nH]1` [Guanosine], the remaining activity at 1.25 µM in assay [1] (Well no.=5248, low concentration screen) amounted to 96.5%; in assay [1] (Well no.=6833, low concentration screen) it was 97.7%; in assay [1] (Well no.=7708, low concentration screen), 94.4%. Moreover, the remaining activity at 3.75 µM came to 98% in assay [2] (Well no.=5248, high concentration screen); 99.5% in assay [2] (Well no.=6833, high concentration screen); 91.8% in assay [2] (Well no.=7708, high concentration screen).
On to `CSc1nc2ccc3nc(NC(=O)C(c4ccccc4)c4ccccc4)sc3c2s1` [Gue1654], for which the remaining activity at 1.25 µM in assay [1] (Well no.=5404, low concentration screen) is 90.4%. Besides, in assay [2] (Well no.=5404, high concentration screen), the remaining activity at 3.75 µM was determined as 92.4%.
In the case of `C/C=C1\C(=O)C[C@H]2[C@@H]3CCC4=CC(=O)CC[C@]4(C)[C@H]3CC[C@]12C` [Guggulsterone], the remaining activity at 1.25 µM in assay [1] (Well no.=6918, low concentration screen) is 103%. In assay [2] (Well no.=6918, high concentration screen), the remaining activity at 3.75 µM is 99.7%.
`O=C(O)C1=CCCNC1` [Guvacine hydrochloride]: in assay [1] (Well no.=460, low concentration screen), the remaining activity at 1.25 µM was found to be 99.2%. Also, the remaining activity at 3.75 µM in assay [2] (Well no.=460, high concentration screen) was found to be 99.6%.
Regarding `O=S(=O)(NCCNC/C=C/c1ccc(Br)cc1)c1cccc2cnccc12` [H 89 dihydrochloride - N-[2-[[3-(4-Bromophenyl)-2-propenyl]amino]ethyl]-5-isoquinolinesulfonamide dihydrochloride], in assay [1] (Well no.=2636, low concentration screen), the remaining activity at 1.25 µM came out at 95.6%. In addition, the remaining activity at 3.75 µM in assay [2] (Well no.=2636, high concentration screen) amounted to 99.1%.
In the case of `CC1CNCCN1S(=O)(=O)c1cccc2cnccc12` (stereo not shown) [H-7 dihydrochloride], the remaining activity at 1.25 µM in assay [1] (Well no.=570, low concentration screen) turned out to be 95.5%. Moreover, in assay [2] (Well no.=570, high concentration screen), the remaining activity at 3.75 µM came to 95.4%.
Take `CNCCNS(=O)(=O)c1cccc2cnccc12` [H-8 dihydrochloride]: the remaining activity at 1.25 µM in assay [1] (Well no.=893, low concentration screen) was 103%. For the same compound, the remaining activity at 3.75 µM in assay [2] (Well no.=893, high concentration screen) was 99.3%.
For `CNCCNS(=O)(=O)c1cccc2cnccc12` [H-8, Dihydrochloride], the remaining activity at 1.25 µM in assay [1] (Well no.=2431, low concentration screen) is 106%. Also, the remaining activity at 3.75 µM in assay [2] (Well no.=2431, high concentration screen) is 105%.
Take `NCCNS(=O)(=O)c1cccc2cnccc12` [H-9 dihydrochloride]: in assay [1] (Well no.=340, low concentration screen), the remaining activity at 1.25 µM came out at 96.1%. Moreover, in assay [2] (Well no.=340, high concentration screen), the remaining activity at 3.75 µM was 100%.
In the case of `O=S(=O)(NCCNC/C=C/c1ccc(Br)cc1)c1cccc2cnccc12` [H-89, Dihydrochloride], the remaining activity at 1.25 µM in assay [1] (Well no.=2610, low concentration screen) turned out to be 88.8%. For the same compound, the remaining activity at 3.75 µM in assay [2] (Well no.=2610, high concentration screen) amounted to 86.3%.
With `CCc1ccc(NC(=O)Nc2c[nH]c3ccccc23)cc1` [H-151], in assay [1] (Well no.=8555, low concentration screen), the remaining activity at 1.25 µM was found to be 102%. In addition, in assay [2] (Well no.=8555, high concentration screen), the remaining activity at 3.75 µM is 103%.
Regarding `NCCCC[C@H](NC(=O)[C@H](Cc1c[nH]c2ccccc12)NC(=O)[C@@H](N)CCCCN)C(=O)O` [H-Lys-Trp-Lys-OH] (H-Lys-Trp-Lys-OH), the remaining activity at 1.25 µM in assay [1] (Well no.=8180, low concentration screen) was 103%. Besides, in assay [2] (Well no.=8180, high concentration screen), the remaining activity at 3.75 µM was determined as 103%.
Regarding `N[C@@H](Cc1ccccc1)C(=O)N[C@@H](Cc1ccccc1)C(=O)O` [H-Phe-Phe-OH] (H-Phe-Phe-OH), in assay [1] (Well no.=8742, low concentration screen), the remaining activity at 1.25 µM was 96.6%. Moreover, in assay [2] (Well no.=8742, high concentration screen), the remaining activity at 3.75 µM was 104%.
Regarding `N[C@@H](Cc1ccc(O)c(I)c1)C(=O)O` [H-Tyr(3-I)-OH], the remaining activity at 1.25 µM in assay [1] (Well no.=7019, low concentration screen) was 99.7%. Besides, the remaining activity at 3.75 µM in assay [2] (Well no.=7019, high concentration screen) was determined as 99.6%.
As to `CC(C)[C@H](N)C(=O)N1CCC[C@H]1C(=O)N1CCC[C@H]1C(=O)O` [H-Val-Pro-Pro-OH (TFA)], the remaining activity at 1.25 µM in assay [1] (Well no.=7546, low concentration screen) is 100%. The remaining activity at 3.75 µM in assay [2] (Well no.=7546, high concentration screen) was 100%.
As for `CCOC(=O)C1=C(N)Oc2ccc(Br)cc2[C@H]1[C@H](C#N)C(=O)OCC` [HA14-1], the remaining activity at 1.25 µM in assay [1] (Well no.=5007, low concentration screen) stood at 105%; in assay [1] (Well no.=6296, low concentration screen), 101%. Besides, the remaining activity at 3.75 µM in assay [2] (Well no.=5007, high concentration screen) was found to be 101%; in assay [2] (Well no.=6296, high concentration screen) it was 102%.
Consider `O=S(=O)(c1cccc2cnccc12)N1CCCNCC1` [HA1077], for which the remaining activity at 1.25 µM in assay [1] (Well no.=1669, low concentration screen) worked out at 106%. Besides, in assay [2] (Well no.=1669, high concentration screen), the remaining activity at 3.75 µM is 106%.
As to `NC(N)=NCCNS(=O)(=O)c1cccc2cnccc12` [HA 1004, Dihydrochloride], the remaining activity at 1.25 µM in assay [1] (Well no.=2433, low concentration screen) was 111%. Moreover, in assay [2] (Well no.=2433, high concentration screen), the remaining activity at 3.75 µM was found to be 108%.
